Tested on: Septoria tritici
Assay: Speckled leaf blotch pathogen Septoria tritici in the microtiter test
Type: cell-based
Details: 125 ppm, microtiter plate, absorption at 405 nm on day 7 after inoculation
Method: The stock solution is pipetted into a microtiter plate (MTP) and diluted to the stated active compound concentration using an aqueous, malt-based nutrient medium for fungi. An aqueous spore suspension of Septoria tritici was then added. The plates were placed in a water vapor-saturated chamber at temperatures of 18° C. Using an absorption photometer, the MTPs were measured at 405 nm on day 7 after the inoculation. The parameters measured were compared to the growth of the active compound-free control variant and the fungus- and active compound-free blank value to determine the relative growth in % of the pathogens in the individual active compounds. The relative growth at 125 ppm of compound 1 was 0%.

`Cc1nc2ncnn2c(N2CCC(C)CC2)c1-c1ncncc1Cl` [compound 1, 6-(5-chloropyrimidin-4-yl)-5-methyl-7-(4-methylpiperidin-1-yl)-[1,2,4]triazolo[1,5-a]pyrimidine] was tested, and the relative growth was 0%.

Source: patent publication US20080132412A1, “7-Amino-6-Heteroaryl-1,2,4-Triazolo[1,5-A]Pyrimidines and Their Use for Controlling Harmful Fungi” (BASF Aktiengesellschaft, priority 2004, published 2008)
